PMC10017709, “Structural basis of selective cannabinoid CB2 receptor activation” (Nature Communications, 2023)
Several values for one entry are separate records, joined by “and”; a condition that tells them apart may be missing. Equal entries are not always repeated.

Experiments:
[1] = target: CB2R-V261^6.51L (Homo sapiens, UniProt P34972, V261L); assay: [35S]GTPγS assay, CB2R V261L mutant; type: biochemical; settings: for [35S]GTPγS binding: V2616.51L, individual replicates
[2] = target: CB2R-L185^ECL2H (Homo sapiens, UniProt P34972, L185H); assay: [35S]GTPγS assay, CB2R L185H mutant; type: biochemical; settings: L185H mutant
Sequence of CB2R-L185^ECL2H (P34972 whole entry L185H): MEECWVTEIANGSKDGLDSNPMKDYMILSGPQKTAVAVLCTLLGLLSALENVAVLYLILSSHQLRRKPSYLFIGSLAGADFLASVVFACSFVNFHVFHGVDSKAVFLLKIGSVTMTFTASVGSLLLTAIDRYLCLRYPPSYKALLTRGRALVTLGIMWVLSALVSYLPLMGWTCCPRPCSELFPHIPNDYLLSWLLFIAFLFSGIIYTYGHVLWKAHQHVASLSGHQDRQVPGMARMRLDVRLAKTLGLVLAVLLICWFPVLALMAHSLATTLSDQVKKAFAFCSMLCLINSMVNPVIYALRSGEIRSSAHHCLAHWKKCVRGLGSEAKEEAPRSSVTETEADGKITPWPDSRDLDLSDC

[3] = target: CB2R-L182^ECL2I (Homo sapiens, UniProt P34972, L182I); assay: [35S]GTPγS assay, CB2R L182I mutant; type: biochemical; settings: L182I mutant
Sequence of CB2R-L182^ECL2I (P34972 whole entry L182I): as the sequence (P34972 whole entry L185H) above, with L182I, H185L counted along it

[4] = target: CB2R WT (Homo sapiens, UniProt P34972); assay: [3H]CP55,940 displacement assay, CB2R WT; type: binding; settings: for percentage specific [3H]CP55,940 binding: CB2R - WT, individual replicates
Sequence of CB2R WT (P34972 whole entry): as the sequence (P34972 whole entry L185H) above, with H185L counted along it

[5] = target: CB2R-I110^3.29L (Homo sapiens, UniProt P34972, I110L); assay: [3H]CP55,940 displacement assay, CB2R I110L mutant; type: binding; settings: for percentage specific [3H]CP55,940 binding: I1103.29L, individual replicates
Sequence of CB2R-I110^3.29L (P34972 whole entry I110L): as the sequence (P34972 whole entry L185H) above, with I110L, H185L counted along it

[6] = target: CB2R-Quadruple^TM1,7 (Homo sapiens, UniProt P34972, C40S/K279T/K33Q/V36I); assay: [3H]CP55,940 displacement assay, CB2R quadruple mutant; type: binding; settings: for percentage specific [3H]CP55,940 binding: QuadrupleTM1,7, individual replicates
Sequence of CB2R-Quadruple^TM1,7 (P34972 whole entry K33Q/V36I/C40S/K279T): as the sequence (P34972 whole entry L185H) above, with K33Q, V36I, C40S, H185L, K279T counted along it

[7] = target: T1, CB1R-L359^6.51V (Homo sapiens, UniProt P21554, L359V); assay: [3H]CP55,940 displacement assay, CB1R L359V mutant; type: binding; settings: CB1R L3596.51V; 10 µM ligand; replicates 1-3
T1 sequence (P21554 whole entry L359V): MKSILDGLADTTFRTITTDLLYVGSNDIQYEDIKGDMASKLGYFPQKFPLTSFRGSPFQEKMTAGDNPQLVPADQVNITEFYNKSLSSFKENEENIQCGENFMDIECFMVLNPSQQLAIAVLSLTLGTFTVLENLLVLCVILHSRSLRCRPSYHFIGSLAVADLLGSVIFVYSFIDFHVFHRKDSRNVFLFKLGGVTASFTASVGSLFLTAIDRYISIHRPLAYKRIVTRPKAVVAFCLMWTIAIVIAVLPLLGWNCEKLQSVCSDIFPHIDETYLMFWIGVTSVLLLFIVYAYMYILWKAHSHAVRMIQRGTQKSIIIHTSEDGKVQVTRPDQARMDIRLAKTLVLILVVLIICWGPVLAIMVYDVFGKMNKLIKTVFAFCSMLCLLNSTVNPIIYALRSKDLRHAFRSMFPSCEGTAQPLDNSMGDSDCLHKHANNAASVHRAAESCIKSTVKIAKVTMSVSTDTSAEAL

[8] = target: T2, CB1R-H270^ECL2L (Homo sapiens, UniProt P21554, H270L); assay: [3H]CP55,940 displacement assay, CB1R H270L mutant; type: binding
T2 sequence (P21554 whole entry H270L): as the sequence (P21554 whole entry L359V) above, with H270L, V359L counted along it

[9] = target: T3, CB1R I267ECL2L (Homo sapiens, UniProt P21554, I267L); assay: [3H]CP55,940 displacement assay, CB1R I267L mutant; type: binding
T3 sequence (P21554 whole entry I267L): as the sequence (P21554 whole entry L359V) above, with I267L, V359L counted along it

[10] = target: T1, CB1R-L359^6.51V; assay: [35S]GTPγS assay, CB1R L359V mutant; type: biochemical
[11] = target: T2, CB1R-H270^ECL2L; assay: [35S]GTPγS assay, CB1R H270L mutant; type: biochemical
[12] = target: T3, CB1R I267ECL2L; assay: [35S]GTPγS assay, CB1R I267L mutant; type: biochemical
[13] = target: T4, CB1R D266ECL2E (Homo sapiens, UniProt P21554, D266E); assay: [35S]GTPγS assay, CB1R D266E mutant; type: biochemical
T4 construct: The WT CB1R and CB2R genes were subcloned into vector pcDNA3.1; HA signal peptide (N); expressed in transfected cells; host or cells: HEK293T (transient, membrane homogenates)
T4 sequence (P21554 whole entry D266E): as the sequence (P21554 whole entry L359V) above, with D266E, V359L counted along it

Sequence of CB2R-V261^6.51L (P34972 whole entry V261L): as the sequence (P34972 whole entry L185H) above, with H185L, V261L counted along it

- Emax (%) ([1]; V261L mutant, at 10 µM compared to WT): 8 ± 4%
- EC50 ([2]; HEK293T membranes): 126 nM
- Emax (%) ([2]; at 10 µM compared to WT): 217 ± 21%
- EC50 ([3]; <5 when curve fit not finished): 39.8 nM
- Emax (%) ([3]; at 10 µM compared to WT): 11 ± 8%
- percentage specific [3H]CP55,940 binding ([4]; log [ligand] (M) -5): 11.20% and 5.48% and 13.91%
- percentage specific [3H]CP55,940 binding ([4]; log [ligand] (M) -6): 40.37% and 13.48% and 13.16%
- percentage specific [3H]CP55,940 binding ([4]; log [ligand] (M) -7): 87.52% and 46.85% and 48.46%
- percentage specific [3H]CP55,940 binding ([4]; log [ligand] (M) -8): 156.63% and 87.43% and 104.52%
- percentage specific [3H]CP55,940 binding ([4]; log [ligand] (M) -9): 143.94% and 83.15% and 100.75%
- percentage specific [3H]CP55,940 binding ([4]; log [ligand] (M) -10): 162.62% and 107.24% and 130.29%
- Ki ([4]; read-out: pKi (converted)): 31.6 nM
- pKi ([5]; CB2R I110L mutant, [3H]CP55,940): remained similar
- percentage specific [3H]CP55,940 binding ([5]; log [ligand] (M) -5): 3.91% and 2.37% and 4.51%
- percentage specific [3H]CP55,940 binding ([5]; log [ligand] (M) -6): 9.98% and 9.21% and 3.23%
- percentage specific [3H]CP55,940 binding ([5]; log [ligand] (M) -7): 39.17% and 30.03% and 31.46%
- percentage specific [3H]CP55,940 binding ([5]; log [ligand] (M) -8): 86.59% and 79.23% and 85.93%
- percentage specific [3H]CP55,940 binding ([5]; log [ligand] (M) -9): 105.91% and 105.22% and 104.46%
- percentage specific [3H]CP55,940 binding ([5]; log [ligand] (M) -10): 128.52% and 108.89% and 100.89%
- Ki ([5]; read-out: pKi (converted)): 12.6 nM
- Ki ([6]; CB2R Quadruple TM1,7 mutant, <5 when curve fit not finished): 158 nM
- percentage specific [3H]CP55,940 binding ([6]; log [ligand] (M) -5): 5.19% and 45.81% and -26.38%
- percentage specific [3H]CP55,940 binding ([6]; log [ligand] (M) -6): 60.64% and 32.84% and -34.85%
- percentage specific [3H]CP55,940 binding ([6]; log [ligand] (M) -7): 75.38% and 92.54% and 80.13%
- percentage specific [3H]CP55,940 binding ([6]; log [ligand] (M) -8): 120.94% and 110.56% and 172.31%
- percentage specific [3H]CP55,940 binding ([6]; log [ligand] (M) -9): 139.03% and 122.04% and 167.10%
- percentage specific [3H]CP55,940 binding ([6]; log [ligand] (M) -10): 103.18% and 81.86% and 136.81%
- Displacement (%) of [3H]CP55,940 ([8]; CB1R H270L, 10 µM compound): 47 ± 5%
- Displacement (%) of [3H]CP55,940 ([9]; CB1R I267L, 10 µM compound): 25 ± 3%
- Agonist-mediated activation ([10]; CB1R L359V, 10 µM agonist): 1.1 ± 0.1 fold over its basal
- Agonist-mediated activation ([11]; CB1R H270L, 10 µM agonist): 1.2 ± 0.0 fold over its basal
- Agonist-mediated activation ([12]; CB1R I267L, 10 µM agonist): 1.0 ± 0.0 fold over its basal
- Agonist-mediated activation ([13]; CB1R D266E, 10 µM agonist): 1.1 ± 0.1 fold over its basal
Structure (SMILES): CC(C)CN1C(=O)CN(Cc2ccc(-c3ccc(F)c(CNC4CCOCC4)n3)cc2)C1=O [LEI-102, 1-(4-(5-fluoro-6-(((tetrahydro-2H-pyran-4-yl)amino)methyl)pyridin-2-yl)benzyl)-3-isobutylimidazolidine-2,4-dione]
- [35S]GTPγS binding ([1]; log [ligand] (M) -5): 10.29 percentage of WT and 13.28 percentage of WT and -0.20 percentage of WT
- [35S]GTPγS binding ([1]; log [ligand] (M) -6): 38.11 percentage of WT and 3.14 percentage of WT and 6.06 percentage of WT
- [35S]GTPγS binding ([1]; log [ligand] (M) -7): 1.50 percentage of WT and -10.33 percentage of WT and -12.90 percentage of WT
- [35S]GTPγS binding ([1]; log [ligand] (M) -8): -5.39 percentage of WT and -14.91 percentage of WT and -5.93 percentage of WT
- [35S]GTPγS binding ([1]; log [ligand] (M) -9): -6.94 percentage of WT and -6.08 percentage of WT and -10.10 percentage of WT
- [35S]GTPγS binding ([1]; log [ligand] (M) -10): 6.99 percentage of WT and -5.10 percentage of WT and -20.01 percentage of WT
- percentage specific [3H]CP55,940 binding [7]: 87.28 percentage and 69.23 percentage and 69.34 percentage
- percentage specific [3H]CP55,940 binding ([8]; CB1R H270ECL2L, 10 µM ligand, replicates 1-3): 43.52 percentage and 52.40 percentage and 62.26 percentage
- percentage specific [3H]CP55,940 binding ([9]; CB1R I267ECL2L, 10 µM ligand, replicates 1-3): 70.66 percentage and 79.50 percentage and 75.81 percentage
- G protein activation, fold over its basal ([10]; CB1R L3596.51V, individual replicates): 1.125 fold over its basal and 1.294 fold over its basal and 0.998 fold over its basal
- G protein activation, fold over its basal ([11]; CB1R H270ECL2L, individual replicates): 1.101 fold over its basal and 1.221 fold over its basal and 1.256 fold over its basal
- G protein activation, fold over its basal ([12]; CB1R I267ECL2L, individual replicates): 1.03 fold over its basal and 1.063 fold over its basal and 1.016 fold over its basal
- G protein activation, fold over its basal ([13]; CB1R D266ECL2E, individual replicates): 1.059 fold over its basal and 1.264 fold over its basal and 1.015 fold over its basal
